This is an account of results in US20220213144A1, “HALOGENATED ANTIMICROBIAL PEPTOIDS” (priority 2019, published 2022).

Data set [1] deals with S. aureus and S. epidermidis. Type of data set: cell-based, Staphylococcus aureus, Staphylococcus epidermidis. The settings on record: span over the Gram-positive strains. As for the experimental part: Bacterial growth inhibition was determined by using broth microdilution according to the Clinical Laboratory Standards Institute. The antibacterial activity of peptoids was tested against S. aureus ATCC 25923, ATCC29213, and methicillin resistant S. aureus USA 300, methicillin resistant S. epidermidis ATCC 51625, a biofilm producing methicillin resistant S. epidermidis […], P. aeruginosa Pa01 (H103), and E. coli ATCC 25922. Bacteria, grown on agar plates for 18 hours at 37° C., were diluted to ˜1×10^8 CFU/mL in Mueller-Hinton Broth II (MHB II). Twofold serial dilutions of peptoids in MHB II were inoculated with the bacteria to achieve a final concentration of 5×10^5 CFU/mL in polypropylene 96 U-well microtiter plates (Corning™ 3897; ThermoFisher Scientific, Roskilde), followed by incubation at 37° C. in ambient air for 18 hours. The MIC values were determined as the lowest concentration showing no visible bacterial growth. Experiments were performed twice (in technical triplicates) on different days.

A short description of data set [2]: Small angle X-ray scattering, critical aggregation concentration from fit. Particulars: Table 2; 10-mers, SAXS at ESRF, model fit. Type of data set: physicochemical. As for the experimental part:
SAXS experiments of the 10-mer peptoids were performed on the automated BM29 bioSAXS beamline at the European Synchrotron Radiation Facility (ESRF) in Grenoble, France. The data was obtained using an energy of 12.5 keV and a detector distance of 2.87 m, covering a q range (q=4π sin(θ/2)/λ), where θ is the scattering angle and λ is the X-ray wavelength) of about 0.0047 Å-1 to 0.5 Å-1. The data set was calibrated to an absolute intensity scale using water as a primary standard. Samples (40 μL) were run through a capillary using the flow mode of the automated sample changer. SAXS data was collected in ten successive frames of 0.5 s each to monitor radiation damage, and the data reduction was done using the standard tool at BM29.
The SAXS experiments on the fully iodinated 6-, 8-, and 12-mers to determine the CAC of the compounds were performed using a Bruker NANOSTAR equipped with a microfocus X-ray source (IμS Cu, Incoatec, Germany) and a VANTEC-2000 detector. Raw scattering data was calibrated to absolute intensity scale using water as a primary standard and radially averaged in order to obtain the 1D scattered intensity profile as a function of the scattering vector, with a wavelength of 1.54 Å.
where fagg is the fraction of peptoid chains aggregated in bundles, allowing for calculation of a CAC from ϕCAC=ϕ−(fagg*ϕ).

Square brackets hold non-standard residues; d marks the D form. Peptide text beside a SMILES is read from it. N(4-Br-benzyl)Gly = O=C(O)CNCc1ccc(Br)cc1; Nphe = O=C(O)CNCc1ccccc1; Nlys = NCCCCNCC(=O)O

Molecule `NCCCCNCC(=O)N(CC(=O)N(CCCCN)CC(=O)N(CC(=O)N(CCCCN)CC(=O)N(CC(=O)N(CCCCN)CC(=O)N(CC(=O)N(CCCCN)CC(=O)N(CC(N)=O)Cc1ccc(Br)cc1)Cc1ccccc1)Cc1ccc(Br)cc1)Cc1ccccc1)Cc1ccc(Br)cc1` [Compound 26] (H-[Nlys][N(4-Br-benzyl)Gly][Nlys][Nphe][Nlys][N(4-Br-benzyl)Gly][Nlys][Nphe][Nlys][N(4-Br-benzyl)Gly]-NH2) had an MICs in data set [1] of 1 to 8 µg/mL. In data set [2], this molecule gave a CAC above 5 mg/mL.
